“Also recorded” adds a separate entry of the source. Counter-ions that a name gives are not always drawn.
Columns and labels:
[1] = in vivo; type: in vivo; settings: zebrafish, in vivo; mortality; embryos incubated 3 to 96 hpf; 5 logarithmic concentrations 0.1 µM to 1 mM; 1% DMSO
Source text: (§1) Several issues were considered when planning the experimental protocol. The main concern was that drug-induced mortality and/or developmental toxicity (teratogenicity) could mask possible organ-toxicities appearing later in development. […] This preliminary assay allowed for the identification of non-mortal/non-teratogenic concentrations—no observed effect concentration (NOEC)—to use in the following assays. The hypothesis is that NOEC could affect organ physiology (organ toxicity), while uncoupled from putative developmental toxicity side-effects affecting organ development or function. Another consideration was to start drug incubations at 96 hours post fertilization (hpf), when the analysed organs are close to or already developed (Figure 1B). The overall aim is to understand the drug impact on organ physiology and function rather than early embryogenesis. The third consideration was to organize the sequential organ evaluation during the experimental and drug incubation time.
(§2) 1% DMSO, which is the constant solvent concentration in all conditions, was used as the negative control.
(§3) Thus, 20 wild type (wt) zebrafish embryos per condition were incubated with tested compounds from 3 to 96 hpf. The test was performed in 5 logarithmic concentrations per drug (from 0.1 µM to 1 mM). Each larva was analysed for mortality, body deformity, edema, tail detachment, pigmentation, heart activity, heart edema, and motor activity. […] DMSO 1% was used as the negative control in all experiments.

[2] = test system: wild type zebrafish embryos; assay: in vivo; type: in vivo; settings: embryos incubated 3 to 96 hpf; 5 logarithmic concentrations 0.1 µM to 1 mM; 1% DMSO
Source text: as §1, §2, §3

[3] = test system: zebrafish larvae heart; assay: ZeGlobalTox cardiotoxicity evaluation (heart video, ZeCardio software); type: in vivo, zebrafish (Danio rerio); settings: 100 hpf, 4 h after drug incubation at NOEC (haloperidol 10 µM)
Experimental: Four cardiac parameters were evaluated to assess whether a compound was cardiotoxic: heart rate (beats per minute, BPM), QTc prolongation, ejection fraction (EJF), and cardiac arrest. […] 1% DMSO was used as the negative control.
Cardiotoxicity evaluation was performed from 96 hpf, when the zebrafish heartbeat is already stabilised, so the analysis might not be altered by unstable beating. Zebrafish hearts were video-recorded at 4 h after drug incubation (100 hpf) and analysed using the ZeCardio® β software (Figure 3A).
After 4 h of drug incubation (100 hpf), zebrafish larvae were anesthetized by immersion in […] tricaine methanesulfonate (A4050, Sigma-Aldrich, Saint Louis, MO, USA)/E3 solution. […] The 1% DMSO treated embryos were used as negative cardiotoxic controls. Embryos were positioned in an agarose based mold to allow their appropriate orientation under the fluorescence stereo microscope (Olympus MVX10). Individual fluorescent hearts were recorded during 60 s each (Figure 6A). Videos were acquired with a high-speed recording camera (Hamamatsu C11440 ORCA-flash 2.8) and analysed with the ZeCardio® β software to extract different cardiac parameters—heart rate, cardiac arrest, QTc prolongation, and Ejection Fraction (EJF) (Figure 6B).
ZeCardio® β software, developed by ZeClinics and currently in β status, provides a graphical user interface (GUI) that facilitates the semi-automatic analysis of living heart videos. Interactive analysis of the different parameters functions as follows: The user draws a line along the heart axis, from ventricle to atrium, to initiate the calculation. […] All lines can be subjected to modification of their angles and lengths.
Heart beat frequency for each chamber is detected and frequencies are presented in the GUI as a mean. A plot distribution is used for assessing beat stability over time (Figure 6F). In the same fashion, chamber specific cardiac arrest is measured as the longest beating pause (Figure 6H). No beating chambers and/or incorrect bpm can be manually flagged when detected.
For calculation of the QTc interval (linearly corrected QT interval), the Framingham formula (QTc = QT + 0.154 (1 − RR)) was adjusted for zebrafish as QTc = QT + 0.154 (2.66 − RR). RR = 6.6 ms/measured bpm is applied (Figure 6G). Finally, the Ejection Fraction, calculated as the maximal dilatation (the diastolic diameter, DD) versus the maximal contraction (systolic diameter, SD) is measured in % as EF% = (DD − SD)/DD*100 (Figure 6G). Computed values for the described parameters were exported in .csv format (Figure 6H).

[4] = test system: zebrafish larvae; assay: ZeGlobalTox neurotoxicity evaluation (locomotion, light/dark trial); type: in vivo, zebrafish (Danio rerio); settings: 120 hpf, drug from 96 hpf at NOEC (MPTP 100 µM, paracetamol 2600 µM)
Experimental: By 5 dpf, zebrafish larvae perform spontaneous swimming and their visual system is fully developed. Therefore, behavioural experiments were performed from this time point (Figure 4A). Deviations in total distance moved, in response to photo-visual stimulation, were analysed as a direct measurement of neurotoxicity. Thus, drugs increasing or decreasing total distance moved when compared to the DMSO-only group were considered neurotoxic. As the positive neurotoxic control we used MPTP, which has been identified as a neurotoxic drug in humans and zebrafish.
Immediately after heart video acquisition, larvae are washed with E3 medium to remove tricaine methanesulfonate from the solution. Fresh drug solution is added and the larvae are transferred individually in a volume of 150 µL to 96 well plates.
Neurotoxicity is analysed at 120 hpf by locomotion assessment using the EthoVision XT 11.5 software and the DanioVision device from Noldus Information Technologies, Wageningen, The Netherlands. This closed system consists of a camera placed above a chamber with circulating water and a temperature sensor set at 28 °C. The 96-well plates are placed in the chamber, which can then be illuminated with white light using the software. Larvae are then left for 20 min under these conditions and with the lights on to help their acclimation. Finally, larvae locomotion is measured during 50′ under the following light/dark conditions: 10′ darkness-10′ Light-10′ darkness-10′ Light-10′ darkness. Total distance moved (in mm) is acquired under this light/dark trial. Due to circadian rhythms, all locomotion assays were performed from 13:00 pm onwards to ensure steady activity of the zebrafish.
Neurotoxicity is assessed by comparing locomotion differences among the tested compounds (solved in DMSO) and the negative control group (DMSO 1%-only).

[5] = test system: humans; settings: known toxicity in humans, ref TOXNET (HSDB), Side effects (EMBL), drugs.com, cited from earlier work; for Neurotoxicity (toxicity in humans): [22],[30],[31],[34],[35]; for Cardiotoxicity (toxicity in humans) / Hepatotoxicity (toxicity in humans): ema.europa; for Cardiotoxicity (toxicity in humans): [19],[20],[21]; for Hepatotoxicity (toxicity in humans): [24],[26],[27],[32],[33]
[6] = test system: zebrafish larvae liver; assay: ZeGlobalTox hepatotoxicity: Oil Red O staining (steatosis and yolk lipid accumulation); settings: 132 hpf; for Percentage of larvae presenting steatosis: 36 h drug incubation at NOEC (EtOH 2%, MPTP 100 µM), DMSO 24.44%
Experimental: In order to assess drugs producing steatosis and yolk lipid accumulation, and subsequent to the RFP filtered images being acquired, zebrafish larvae were stained with Oil Red O. Larvae and were sorted into steatosis positive or negative, yolk lipid accumulation, or both (see materials and methods).
For the ZeGlobalTox assay, fertilized Tg(cmlc2:GFP; fabp10:RFP; ela31:EGFP) zebrafish embryos were collected in E3 medium (5 mM NaCl, 0.17 mM KCl, 0.33 mM CaCl2, 0.33 mM, MgSO4) in Petri dishes. At 3, 24, and 48 hpf, dishes were observed and all not fertilized, abnormal, or coagulated eggs were discarded. At 96 hpf, 20 larvae per condition were incubated with the NOECs from the different drugs and allowed to develop until 132 hpf at 28.5 °C.
After 36 h of drug incubation (132 hpf), embryos are fixed in 4% paraformaldehyde (158127-500G, Sigma-Aldrich, Saint Louis, MO, USA) for 2–4 h at room temperature (RT) and then are 3× washed with PBS.
In order to detect the presence of steatosis and yolk lipid retention, zebrafish larvae were stained with Oil Red O (O0625-25G, Sigma-Aldrich, Saint Louis, MO, USA) as described in [77]. Briefly, the skin pigment from fixed larvae is removed by incubating with bleaching solution (for 10 mL: 6 mL H2O, 0.25 mL 20× SSC, 0.5 mL formamide, 3.3 mL H2O2) during 20 min at RT. Then, the larvae are 5× washed with PBS. Bleached embryos are first submerged in 85% Propylene glycol (PG) (134368-1L, Sigma-Aldrich, Saint Louis, MO, USA) for 10 min and then in 100% PG for another 10 min before staining them with Oil Red O 0.5% in 100% PG (overnight, at RT and with gentle rocking). Oil Red O stained embryos are washed in 100% PG for 30 min, 50 min in 85% PG, and 40 min in 85% PG with an equal volume of PBS. Finally, embryos are washed 1× with PBS before adding 80% glycerol (G7757-500ML, Sigma-Aldrich, Saint Louis, MO, USA). Bright field images are taken to detect both steatosis and yolk lipid accumulation. […] Yolk lipid retention is considered positive when a red strong signal is observed in the yolk area (Figure 5F).
DMSO 1% treated larvae were used as the negative control group.

[7] = test system: zebrafish larvae; set-up: method as in PMID 16408054, PMID 22744888; settings: ref [50],[57]; cited from earlier work

Compound	LC50 [1] [µM]	96 hpf LOEC [2] [µM]	96 hpf NOEC [2] [µM]	Heart rate (beats per minute) compared to DMSO-only [3]	Longest cardiac arrest compared to DMSO-only [3]	Motility (total distance moved) compared to DMSO [4]	Neurotoxicity (toxicity in humans) [5]	Cardiotoxicity (toxicity in humans) [5]	Hepatotoxicity (toxicity in humans) [5]	Percentage of larvae presenting steatosis [6] [%]	Impact on the heart rate in zebrafish larvae [7]	Percentage of larvae presenting yolk lipid retention ([6]; 36 h drug incubation at NOEC (paracetamol 2600 µM), DMSO 22.22%) [%]	QTc interval compared to DMSO-only [3]
CN1CCN(CCCN2c3ccccc3Sc3ccc(C(F)(F)F)cc32)CC1 [Trifluoperazine HCL, trifluoperazine hydrochloride]	31.6	100	10	decreased the heart rate	Longer cardiac arrest	Decreased motility	Toxic ^1,2,3	Toxic ^1,2,3	Toxic ^1,2,3	85			
CC[C@]1(O)C[C@H]2CN(CCc3c([nH]c4ccccc34)[C@@](C(=O)OC)(c3cc4c(cc3OC)N(C=O)[C@H]3[C@@](O)(C(=O)OC)[C@H](OC(C)=O)[C@]5(CC)C=CCN6CC[C@]43[C@@H]65)C2)C1 [Vincristine, vincristine]	31.6	100		decreased the heart rate	Longer cardiac arrest	increased motility	Toxic ^1,2,3	Toxic ^1,2,3	Safe				
CNCC(O)c1ccc(O)c(O)c1.Cl (racemic) [(±)-Epinephrine HCL, (±)-epinephrine hydrochloride]			1000.00			increased motility	Toxic ^1,2,3	Toxic ^1,2,3	Safe	80			
CC(=O)Nc1ccc(O)cc1 [Acetaminophen]						Decreased motility	Toxic ^2,3	Toxic ^1,2,3	Toxic ^1,2,3 [24]		no impact	60	
CN1CC=C(c2ccccc2)CC1 [MPTP, 1-methyl-4-phenyl-1,2,3,6-tetrahydropyridine]						Decreased motility	Toxic [22, 30, 31]			50			
CC(C)NCC(O)COc1cccc2[nH]ccc12 (stereo not drawn) [Pindolol, pindolol]	> 1000	1000		decreased the heart rate	Longer cardiac arrest	increased motility	Toxic ^2,3	Toxic ^1,2,3	Safe				QTc interval prolongation; also recorded: increased QTc
